Entries after “also recorded” stand apart in the source; their conditions may differ. Where two headings read alike, the source gives them in different places. Non-standard residues stand in square brackets, D forms with d. *: point of attachment. Benzoyl(4-F) = O=C(c1ccc(F)cc1)*; Cit = NC(=O)NCCC[C@H](N)C(=O)O
Assays:
[1] = tested on: NSCLC cell lines (H358, A549, H460, H1299 and L4); test: Colony assay (agar), NSCLC cell lines; assay type: cell-based, human
Method: (§1) The H460 (large cell carcinoma), A549 (Adenocarcinoma), H358 (Bronchoalveolar carcinoma), H1299 (large cell carcinoma)—cell lines were all purchased from ATCC and were maintained in RPMI (Gibco Laboratories, Grand Island, N.Y.) containing 10% fetal calf serum (FCS), 1 mM L-glutamine, 100 U/ml penicillin, and 0.01 mg/ml streptomycin (Biological Industries, Kibbutz Beth Haemek, Israel). L-4 (a primary NSCLC cell line) was generated from large cell carcinoma as previously described (Wald et al, J Thorac Cardiovasc Surg. 2011 June; 141(6): 1503-12).
(§2) Agar base layer was prepared as follows: 45 ml of RPMI+12% FCS was mixed with 15 ml of RPMI X2+12% FCS and with 15 ml of 2.5% agar in double distilled water. Tumor cells were suspended in RPMI+10% FCS. Cell suspension was mixed in a ratio of 1:3 with the agar base solution. This mixture was then plated on top of a preformed solid agar base. […] Fourteen days later, the number of colonies was counted in ten different fields.
(§3) Data was expressed as mean ±standard error (SE) and as absolute values. Continuous data with normal distribution were analyzed using T-test. Categorical data were analyzed using Mann-Whitney U test. A p value of 0.05 was considered significant. * P<0.05, ** P<0.01. Statistical analyses were performed using (SPSS software, (IBM).

[2] = tested on: H460 cells (large cell carcinoma); test: Colony assay (agar), H460; assay type: cell-based, human
Method: as §1, §2, §3

[3] = tested on: A549 cells (Adenocarcinoma); test: Colony assay (agar), A549; assay type: cell-based, human
Method: as §1, §2, §3

[4] = tested on: H1299 cells (large cell carcinoma); test: Colony assay (agar), H1299; assay type: cell-based, human; conditions: 100 μg\ml BKT140 with CXCL12
Method: as §1, §2, §3

[5] = tested on: H358 cells (Bronchoalveolar carcinoma); test: Colony assay (agar), H358; assay type: cell-based, human; conditions: 100 μg\ml BKT140 with CXCL12
Method: as §1, §2, §3

[6] = tested on: NSCLC cell lines (H358, A549, H460, H1299 and L4); test: Proliferation and survival assays, NSCLC cell lines; assay type: cell-based, human; conditions: 20 or 100 μg/ml BKT140, dose dependant
Method: (§4) Color extraction was done using 0.1 N HCl. […] 6 wells were determined for each time point.

[7] = tested on: H460 cells (large cell carcinoma); test: Proliferation / survival assay and Giemsa stain, H460; assay type: cell-based, human; conditions: for H460 tumor cell proliferation, agent alone: 0.1 μg/ml, did not completely inhibit proliferation
Method: as §4

H460 derived tumors = test: H460 derived xenograft growth in Nude mice; assay type: in vivo; conditions: BKT140 400 μg/mice S.C. once daily 6/7 days a week
Method: (§5) 1*10^6 H460 cells mixed in 100 μl RPMI 1640 and 100 μl matrigel (BD Bioscience) were injected subcutaneously (S.C.) into the right flank of Nude mice. Tumor growth was followed for 19 days. 1*10^6 A549 cells mixed in 100 μl RPMI 1640 and 100 μl matrigel (BD Bioscience) were injected S.C. into the right flank of Nude mice. Tumor growth was followed for 35 days. Systemic BKT140 administration was performed as follows: BKT140 (400 μg/mice dissolved in PBS) was administered once daily 6/7 days a week, by S.C. injection into the left flank at a point distant at least 1.5 cm from the right sided tumor. Tumors size was calculated by measurement of tumor length and width using the following formula: 4/3*π*(length/2)*(width/2)^2.

A549 derived tumors = test: A549 derived xenograft growth in Nude mice; assay type: in vivo; conditions: BKT140 400 μg/mice S.C. once daily 6/7 days a week
Method: as §5

human CXCR4 = target: T1, human CXCR4 (Homo sapiens, UniProt P61073); test: Immunohistochemistry for CXCR4 in H460 derived tumors after S.C. BKT140; assay type: in vivo; conditions: BKT140 S.C. at a site distant from the tumor, 6 hours prior to sacrification
T1 construct: Tissue sections from H460 derived tumors were tested for CXCR4 expression; endogenous in cells; host or cells: H460 NSCLC cells grown as subcutaneous xenografts in Nude mice
T1 sequence (P61073 whole entry): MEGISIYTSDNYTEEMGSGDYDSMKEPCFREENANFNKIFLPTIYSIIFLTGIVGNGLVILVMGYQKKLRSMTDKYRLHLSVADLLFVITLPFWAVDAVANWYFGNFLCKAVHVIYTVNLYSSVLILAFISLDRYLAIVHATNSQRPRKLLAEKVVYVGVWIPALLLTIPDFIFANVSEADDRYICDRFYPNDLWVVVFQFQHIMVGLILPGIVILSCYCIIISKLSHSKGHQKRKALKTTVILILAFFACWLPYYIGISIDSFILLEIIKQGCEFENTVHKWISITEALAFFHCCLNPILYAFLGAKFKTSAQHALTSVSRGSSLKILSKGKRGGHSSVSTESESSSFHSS
Method: as §5
Tissue sections of tumor-bearing Nude mice were routinely fixed with formalin and embedded in paraffin. Antigen retrieval was performed, and sections were stained with either mAb 44708 (R&D Systems, Minneapolis, MN) or 12G5 (R&D Systems) for human CXCR4 (1:100) using a standard indirect avidin-biotin HRP method according to the manufacturer's instructions. 3-Amino-9-ethylcarbazole was used for color development and sections were counterstained with hematoxylin. As negative controls, sections were stained either with no primary Ab (PBS) or with an isotype-matched control Ab.

[8] = tested on: A549 cells (Adenocarcinoma); conditions: for A549 tumor cell proliferation, agent alone: 0.1 μg/ml, did not completely inhibit proliferation
Method: To measure cell proliferation, 4000 cells were seeded into 96-well cell culture plates with 200 μl RPMI 1640 medium supplemented with 10% FCS under the following conditions: 37° C., and 5% CO2. Twenty-four hours later, the medium was to changed to RPMI 1640 supplemented with 1% FCS. 20 μg\ml, 50 μg/ml or 100 μg\ml BKT140, with or without Cisplatin 0.1 μg/ml or paclitaxel 0.1 μg/ml to 1 μg/ml μg/ml were added to the medium. For radiation experiments, prior to plating of cells, the cells were irradiated at the following doses 500 to 2000 Rad. Cultured cells were fixed with 2.5% Gluteraldehyde at the indicated time points and stained with 1% Methylene Blue. Color extraction was done using 0.1 N HCl. Absorbance of the solution in each well at 570 nm was read with micro-plate reader (Anthos Htll). 6 wells were determined for each time point.

[9] = tested on: bone marrow derived cells; conditions: cited from earlier work
[10] = increasing BKT140 with irradiation 500 Rad, cisplatin 0.1 μg/ml or paclitaxel 0.1 μg/ml (paclitaxel data not shown)

Molecule: 4F-benzoyl-Arg-Arg-Nal-Cys-Tyr-Cit-Lys-DLys-Pro-Tyr-Arg-Cit-Cys-Arg-NH2 ({Benzoyl(4-F)}-RR[Nal]CY[Cit]K[dK]PYR[Cit]CR-NH2; cysteine pairing not given here) [BKT140]
- colony formation ([1]; single dose of 100 μg\ml BKT140 on day one, over entire range of CXCL12 concentrations): reduced colony formation
- inhibitory effect on colony formation (compared between cell lines) ([2]; 100 μg\ml BKT140 with CXCL12): most evident
- inhibitory effect on colony formation (compared between cell lines) ([3]; 100 μg\ml BKT140 with CXCL12): least evident
- inhibitory effect on colony formation (compared between cell lines) [4]: most evident
- inhibitory effect on colony formation (compared between cell lines) [5]: least evident
- NSCLC proliferation (cytostatic / cytotoxic effect) [6]: inhibited; also recorded: both cytostatic and cytotoxic effects
- tumor cell survival [6]: reduced tumor cell survival
- H460 tumor cell proliferation ([7]; BKT140 20 μg/ml): completely arrest
- H460 cytotoxic effect ([7]; BKT140 100 μg/ml): tumor cell death
- H460 proliferation, combination effect [7, 10]: additive anti proliferative effects
- volume / development of H460 derived tumors (H460 derived tumors; 19 days): significantly reduced; also recorded: significantly delayed
- decrease of median tumor volume (H460 derived tumors; H460): ~50%
- volume / development of A549 derived tumors (A549 derived tumors; 35 days): much reduced effect
- decrease of median tumor volume (A549 derived tumors; A549): ~50%
- CXCR4 staining of tumor tissue (binding to tumor expressed CXCR4) (human CXCR4): completely blocked CXCR4 staining
- A549 tumor cell proliferation ([8]; BKT140 20 μg/ml): did not affect
- A549 tumor cell proliferation ([8]; BKT140 100 μg/ml): significantly reduced
- A549 proliferation, combination effect [8, 10]: additive anti proliferative effects
- time of return of mobilization to base line ([9]; post BKT140 injection): 24 h
- time of peak mobilization of bone marrow derived cells ([9]; post S.C. injection): four to eight

Molecule: N.N.[Cl][Pt][Cl] [cisplatin, reference compound]
- H460 tumor cell proliferation, agent alone [7]: moderate anti-proliferative effect
- A549 tumor cell proliferation, agent alone [8]: moderate anti-proliferative effect

Molecule: CC(=O)O[C@H]1C(=O)[C@@]2(C)[C@H]([C@H](OC(=O)c3ccccc3)[C@]3(O)C[C@H](OC(=O)[C@H](O)[C@@H](NC(=O)c4ccccc4)c4ccccc4)C(C)=C1C3(C)C)[C@]1(OC(C)=O)CO[C@@H]1C[C@@H]2O [paclitaxel, reference compound]
- H460 tumor cell proliferation, agent alone [7]: moderate anti-proliferative effect
- A549 tumor cell proliferation, agent alone [8]: moderate anti-proliferative effect

Molecule: CXCL12: The chemokine CXCL12 (stromal-derived factor-1 or SDF-1), the only natural ligand of CXCR4
- colony formation ([1]; CXCL12 25-250 ng/ml, colonies counted after fourteen days): dose dependant increase in colony formation
- fold increase in colony number ([2]; 250 ng/ml CXCL12): 2.5 fold
- fold increase in colony number ([3]; similar CXCL12 concentrations (250 ng/ml)): 1.4 fold

Reference: US9439942B2, “Peptides and use thereof in the treatment of large cell lung cancer” (Biokine Therapeutics Ltd., priority 2012, dated 2016)
